Legend:
[1] = Cytotoxicity against human THP1-Blue ISG cells assessed as inhibition of cell growth at 10 uM incubated for 24 hrs by MTS assay relative to control; type: toxicity, cell-based
[2] = target: Stimulator of interferon genes protein (Homo sapiens, UniProt Q86WV6, G230A/R293Q/R71H); assay: Inhibition of cGAMP-induced STING HAQ mutant transfected in human THP1-Blue ISG cells preincubated with compound for 6 hrs followed by cGAMP addition and measured after 18 hrs by QUANTI-Blue based microplate reader analysis; type: cell-based
Stimulator of interferon genes protein, sequence (Q86WV6 whole entry R71H/G230A/R293Q): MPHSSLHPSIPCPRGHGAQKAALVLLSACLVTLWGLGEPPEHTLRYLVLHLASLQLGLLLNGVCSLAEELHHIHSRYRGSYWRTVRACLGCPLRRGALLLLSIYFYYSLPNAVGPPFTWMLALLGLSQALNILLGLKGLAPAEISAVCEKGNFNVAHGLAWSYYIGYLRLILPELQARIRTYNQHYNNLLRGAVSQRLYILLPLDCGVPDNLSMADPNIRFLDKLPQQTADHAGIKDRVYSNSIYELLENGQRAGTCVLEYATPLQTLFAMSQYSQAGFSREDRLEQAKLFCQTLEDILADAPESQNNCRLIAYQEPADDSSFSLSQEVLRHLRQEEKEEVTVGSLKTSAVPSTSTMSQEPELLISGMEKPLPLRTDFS

SMILES | inhibition at 24 h, 10 µM [1] [%] | IC50 [2] [nM]
CC(=O)Nc1cc(NC(=O)c2ccc(Oc3ccc(C4C(C(N)=O)c5ccccc5C(=O)N4c4ccc(C(C)(C)C)c(Cl)c4)cc3)cc2)ccc1O (centres undefined) | 67.2 | 2500
CC(C)(C)c1ccc(N2C(=O)c3cc(F)ccc3C(C(N)=O)C2c2ccc3sc(-c4ccc(C(=O)Nc5ccc(O)c(NS(=O)(=O)C6CC6)c5)cc4)cc3c2)cc1Cl (centres undefined) | 7.7 | > 10000
CC(C)(C)c1ccc(N2C(=O)c3cc(F)ccc3C(C(N)=O)C2c2ccc3sc(-c4ccc(C(=O)Nc5ccc(O)c(NS(C)(=O)=O)c5)cc4F)cc3c2)cc1Cl (centres undefined) | 11.1 | 800
CC(C)(C)c1ccc(N2C(=O)c3ccccc3C(C(N)=O)C2c2cc3cc(-c4ncc(C(=O)Nc5ccc(O)c(NS(C)(=O)=O)c5)cn4)ccc3o2)cc1Cl (centres undefined) | 20.4 | > 10000
CC(C)(C)c1ccc(N2C(=O)c3ccccc3C(C(N)=O)C2c2ccc(Oc3ccc(C(=O)Nc4ccc(NS(C)(=O)=O)cc4)cc3)cc2)cc1Cl (centres undefined) | 13.7 | > 10000
CC(C)(C)c1ccc(N2C(=O)c3ccccc3C(C(N)=O)C2c2cc3cc(-c4ccc(C(=O)Nc5ccc(O)c(NC(=O)C(F)(F)F)c5)cc4)ccc3o2)cc1Cl (centres undefined) | 4.9 | 5800
CC(C)(C)c1ccc(N2C(=O)c3ccccc3C(C(N)=O)C2c2cc3cc(-c4ccc(C(=O)N[C@H]5CC[C@H](O)CC5)cc4)ccc3o2)cc1Cl (some centres undefined) | 67 | > 10000
CC(C)(C)c1ccc(N2C(=O)c3ccccc3C(C(N)=O)C2c2ccc(Oc3ccc(C(=O)Nc4cccc(NS(C)(=O)=O)c4)cc3)cc2)cc1Cl (centres undefined) | 10.5 | > 10000
CC(C)(C)c1ccc(N2C(=O)c3ccccc3C(C(N)=O)C2c2cc3cc(-c4ccc(C(=O)Nc5ccc(O)c(NS(C)(=O)=O)c5)cc4)ccc3o2)cc1F (centres undefined) | 55.6 | 100
CC(C)(C)c1ccc(N2C(=O)c3cc(F)ccc3C(C(N)=O)C2c2cc3cc(-c4ccc(C(=O)Nc5ccc(O)c(NC(=O)C(F)(F)F)c5)cc4)ccc3s2)cc1Cl (centres undefined) | 12.5 | 2300
CC(C)(C)c1ccc(N2C(=O)c3cc(F)ccc3C(C(N)=O)C2C2=Cc3cc(-c4ccc(C(=O)Nc5ccc(O)c(NS(C)(=O)=O)c5)cc4)ccc3S2(=O)=O)cc1Cl (centres undefined) | 12.7 | 720
CC(C)(C)c1ccc(N2C(=O)c3ccccc3C(C(N)=O)C2c2ccc(Oc3ccc(C(=O)Nc4ccc(CO)c(NS(C)(=O)=O)c4)cc3)cc2)cc1Cl (centres undefined) | 0 | > 10000
CC(C)(C)c1ccc(N2C(=O)c3cc(F)ccc3C(C(N)=O)C2c2ccc3sc(-c4ccc(C(=O)Nc5ccc(O)c(C(N)=O)c5)cc4)cc3c2)cc1Cl (centres undefined) | 14.7 | > 10000
CC(C)(C)c1ccc(N2C(=O)c3cc(F)ccc3C(C(N)=O)C2c2ccc3sc(-c4ccc(C(=O)Nc5ccc(O)c(NS(C)(=O)=O)c5)cc4)cc3c2)cc1Cl (centres undefined) | 7.7 | 950
CC(C)(C)c1ccc(N2C(=O)c3ccccc3C(C(N)=O)C2c2ccc(Nc3ccc(C(=O)Nc4ccc(O)c(NS(C)(=O)=O)c4)cc3)cc2)cc1Cl (centres undefined) | 0 | 3200
CC(C)(C)c1ccc(N2C(=O)c3ccccc3C(C(N)=O)C2c2cc3cc(-c4ccc(C(=O)Nc5ccc(F)c(NS(C)(=O)=O)c5)cc4)ccc3o2)cc1Cl (centres undefined) | 26.8 | > 10000
CC(C)(C)c1ccc(N2C(=O)c3ccccc3C(C(N)=O)C2c2ccc3c(c2)C=C(c2ccc(C(=O)Nc4ccc(O)c(NS(C)(=O)=O)c4)cc2)S3(=O)=O)cc1Cl (centres undefined) | 36.1 | > 10000
CS(=O)(=O)Nc1cc(NC(=O)c2ccc(-c3ccc4oc(C5C(C(N)=O)c6ccccc6C(=O)N5c5ccc(Br)c(Cl)c5)cc4c3)cc2)ccc1O (centres undefined) | 65.1 | 270
CCC(=O)Nc1cc(NC(=O)c2ccc(Oc3ccc(C4C(C(N)=O)c5ccccc5C(=O)N4c4ccc(C(C)(C)C)c(Cl)c4)cc3)cc2)ccc1O (centres undefined) | 7.5 | > 10000
CN(c1ccc(C(=O)Nc2ccc(O)c(NS(C)(=O)=O)c2)cc1)c1ccc(C2C(C(N)=O)c3ccccc3C(=O)N2c2ccc(C(C)(C)C)c(Cl)c2)cc1 (centres undefined) | 1.2 | 820
CS(=O)(=O)Nc1cc(NC(=O)c2ccc(-c3ccc4oc(C5C(C(N)=O)c6ccccc6C(=O)N5c5ccc(C6CC6)c(Cl)c5)cc4c3)cc2)ccc1O (centres undefined) | 61.5 | 110

SMILES | inhibition at 24 h, 10 µM [1] [%] | IC50 [2] [nM]
CC(C)(C)c1ccc(N2C(=O)c3ccccc3C(C(N)=O)C2c2cc3cc(-c4ccc(C(=O)Nc5ccc(O)c(NS(C)(=O)=O)c5)cc4)ccc3s2)cc1Cl (centres undefined) | 15.9 | 440
CC(C)(C)c1ccc(N2C(=O)c3cc(F)ccc3C(C(N)=O)C2c2cc3cc(-c4ccc(C(=O)Nc5ccc(O)c(NS(C)(=O)=O)c5)cc4)ccc3s2)cc1Cl (centres undefined) | 23.2 | 450
CC(C)(C)c1ccc(N2C(=O)c3ccccc3C(C(N)=O)C2c2cc3cc(-c4ccc(C(=O)NC5CCN(S(C)(=O)=O)CC5)cc4)ccc3o2)cc1Cl (centres undefined) | 35.2 | > 10000
CC(C)(C)c1ccc(N2C(=O)c3ccccc3C(C(N)=O)C2c2ccc(Oc3ccc(C(=O)Nc4ccc(O)cc4)cc3)cc2)cc1Cl (centres undefined) | 29.4 | > 10000
CC(C)(C)c1ccc(N2C(=O)c3ccccc3C(C(N)=O)C2c2cc3cc(-c4ccc(NC(=O)c5cc(O)cc(NS(C)(=O)=O)c5)cc4)ccc3s2)cc1Cl (centres undefined) | 50.2 | > 10000
CC(C)(C)c1ccc(N2C(=O)c3ccccc3C(C(N)=O)C2c2cc3cc(-c4ccc(C(=O)N[C@H]5CC[C@@H](O)CC5)cc4)ccc3o2)cc1Cl (some centres undefined) | 59.6 | > 10000
CC(=O)Nc1cc(NC(=O)c2ccc(Oc3ccc(C4C(C(N)=O)c5ccccc5C(=O)N4c4ccc(C(C)(C)C)c(Cl)c4)cc3)cc2)ccc1C (centres undefined) | 11.6 | > 10000
CC(C)(C)c1ccc(N2C(=O)c3ccccc3C(C(N)=O)C2c2cc3cc(-c4ccc(C(=O)Nc5ccc(N)c(NS(C)(=O)=O)c5)cc4)ccc3o2)cc1Cl (centres undefined) | 28.5 | > 10000
CC(C)(C)c1ccc(N2C(=O)c3ccccc3C(C(N)=O)C2c2cc3cc(-c4ccc(C(=O)Nc5ccc(O)c(NS(C)(=O)=O)c5)cn4)ccc3o2)cc1Cl (centres undefined) | 45.7 | 140
CS(=O)(=O)Nc1cc(NC(=O)c2ccc(-c3ccc4oc(C5C(C(N)=O)c6ccccc6C(=O)N5c5ccccc5)cc4c3)cc2)ccc1O (centres undefined) | 23 | 3600
CC(C)(C)c1ccc(N2C(=O)c3ccccc3C(C(N)=O)C2c2ccc(Oc3ccc(C(=O)Nc4cc(F)c(O)c(F)c4)cc3)cc2)cc1Cl (centres undefined) | 44.5 | 3200
CC(C)(C)c1ccc(N2C(=O)c3ccccc3C(C(=O)O)C2c2cc3cc(-c4ccc(C(=O)Nc5ccc(O)c(NS(C)(=O)=O)c5)cc4)ccc3s2)cc1Cl (centres undefined) | 0 | > 10000
CS(=O)(=O)Nc1cc(NC(=O)c2ccc(-c3ccc4oc(C5C(C(N)=O)c6ccccc6C(=O)N5c5ccc6c(c5)CCCC6)cc4c3)cc2)ccc1O (centres undefined) | 38.7 | 540
CC(C)(C)c1ccc(N2C(=O)c3ccccc3C(C(N)=O)C2c2ccc3sc(-c4ccc(C(=O)Nc5ccc(O)c(NS(C)(=O)=O)c5)cc4)cc3c2)cc1Cl (centres undefined) | 3.9 | 180
CC(C)(C)c1ccc(N2C(=O)c3ccccc3C(C(N)=O)C2c2cc3cc(-c4ccc(C(=O)Nc5cc(O)cc(NS(C)(=O)=O)c5)cc4)ccc3o2)cc1Cl (centres undefined) | 46.2 | > 10000
CC(C)(C)c1ccc(N2C(=O)c3ccccc3C(C(N)=O)C2c2ccc3oc(-c4ccc(C(=O)Nc5ccc(O)c(NS(C)(=O)=O)c5)cc4)cc3c2)cc1Cl (centres undefined) | 14 | 2800
CC(C)(C)c1ccc(N2C(=O)c3ccccc3C(C(N)=O)C2c2ccc(Oc3ccc(C(=O)Nc4ccc(O)c(NS(C)(=O)=O)c4)cc3)cc2)cc1Cl (centres undefined) | 33.8 | > 10000
CN1C(=O)c2ccccc2C(C(N)=O)C1c1cc2cc(-c3ccc(C(=O)Nc4ccc(O)c(NS(C)(=O)=O)c4)cc3)ccc2o1 (centres undefined) | 57.9 | 6500
CC(C)(C)c1ccc(N2C(=O)c3ccccc3C(C(N)=O)C2c2cc3cc(-c4ccc(C(=O)Nc5cc(-c6ccco6)n[nH]5)cc4)ccc3o2)cc1Cl (centres undefined) | 17.8 | > 10000
CC(C)(C)c1ccc(N2C(=O)c3ccccc3C(C(N)=O)C2c2cc3cc(-c4ccc(C(=O)Nc5ccc(O)c(NS(=O)(=O)C(F)(F)F)c5)cc4)ccc3o2)cc1Cl (centres undefined) | 20.2 | > 10000
CS(=O)(=O)Nc1cc(NC(=O)c2ccc(-c3ccc4oc(C5C(C(N)=O)c6ccccc6C(=O)N5c5ccc(C6CC6)cc5)cc4c3)cc2)ccc1O (centres undefined) | 25.6 | 270

Source: ChEMBL document CHEMBL6182913, “Design of Potent Small-Molecule Stimulator of Interferon Gene Inhibitor and Stimulator of Interferon Gene Mutant-Specific Degrader” (J Med Chem, 2025)
